Active and inactive are the calls of the source.
Assays:
[1] = microbe, parasite or virus in culture; format: functional; settings: Mycobacterium tuberculosis
X-box-binding protein 1 = X-box-binding protein 1 (Homo sapiens, UniProt P17861); format: functional, Cricetulus griseus;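 further: confirmatory dose-response counter-screen serving a CHOP assay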
[2] = molecular target: Acyl-homoserine lactone acylase PvdQ (Pseudomonas aeruginosa (strain LESB58), UniProt Q9I194); assay: PvdQ acylase enzyme activity blockers – biochemical, fluorescence, plate reader and imaging, cherry-picks, dose response (AID 493231)
cells [3] = format: functional, cell-based
cells [4] = format: functional, cell-based; remark: listed apart in the source
Nonstructural protein 1 = Nonstructural protein 1 (Influenza A virus, UniProt Q194T2); format: functional, Influenza A virus (A/California/07/2009(H1N1))
[5] = molecular target: G2/mitotic-specific cyclin-B1 (Homo sapiens, UniProt P14635); assay: HeLa cell cycle G2/M accumulation – FACS, mechanism study for Wee1 degradation inhibitor project, late-stage follow-up, panel member Cyclin B Degradation (AID 2088)
Wee1-like protein kinase = Wee1-like protein kinase (Homo sapiens, UniProt P30291); assay: HeLa cell cycle G2/M accumulation – FACS, mechanism study for Wee1 degradation inhibitor project, late-stage follow-up, panel member Wee1 Degradation (AID 2088)
HeLa = assay: viability loss in HeLa cells – cell-based, 24 h, cherry-picked samples, cytotoxicity control, dose response (AID 504726); format: functional; settings: Homo sapiens;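 further: potency for cytotoxicity as loss of luminescence signal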
SUMO E1/E2 = SUMO E1/E2 (Homo sapiens, UniProt P63279+Q9UBE0+Q9UBT2); assay: SAR analysis of SUMOylation using HTRF in an in-Vitro dose response assay. [Related pubchem assays (depositor defined):AID2006, AID2011, AID2018, AID2069, AID2658]; format: functional
[6] = molecular target: T1, Voltage-gated N-type calcium channel alpha-1B subunit/Amyloid beta A4 precursor protein-binding family A member 1 (Homo sapiens, UniProt Q00975+Q02410); assay: disruptors of Mint-PDZ/N-type channel peptide interaction – biochemical, HTRF, set 2, SAR follow-up (AID 434980); format: functional
[7] = molecular target: T1, Voltage-gated N-type calcium channel alpha-1B subunit/Amyloid beta A4 precursor protein-binding family A member 1; assay: disruptors of Mint-PDZ/N-type channel peptide interaction – biochemical, HTRF, SAR follow-up (AID 2489); format: functional
[8] = test system: Streptococcus sp. 'group A'; assay: Streptococcus pyogenes SK(-)GAS viability under kanamycin – luminescence, BacTiterGlo, confirmation, counter-screen for streptokinase expression inhibitor project, dose response (AID 1900); format: functional, organism-based
Streptococcus = assay: GAS UMAA2166 growth inhibition – luminescence, BacTiterGlo, counter-screen for streptokinase expression inhibitor project, dose response (AID 1915); format: functional, organism-based;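 further: potency for reduction of bacterial viability or growth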
[9] = molecular target: C-C chemokine receptor type 6 (Homo sapiens, UniProt P51684); assay: antagonism of CCR6 beta-arrestin recruitment – cell-based, luminescent beta-arrestin readout, dose response (AID 504728); format: functional
Beta-galactosidase = Beta-galactosidase (Escherichia coli, UniProt Q8VNN2); assay: detection-enzyme interference by beta-gal modulators – biochemical, E. coli enzyme, set 3, artefact control for CCR6 antagonist project, dose response (AID 504712); format: functional
INS1 = assay: INS-1E survival protection against cytokine death – cell-based, luminescence, retest, dose response (AID 449756); format: functional; settings: Rattus norvegicus;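 further: cell death triggered by IL-1 beta plus TNF-alpha plus IFN-gamma mixture; protective hits raise ATP signal compared with cytokine alone wells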

G2/mitotic-specific cyclin-B1, sequence (P14635 whole entry): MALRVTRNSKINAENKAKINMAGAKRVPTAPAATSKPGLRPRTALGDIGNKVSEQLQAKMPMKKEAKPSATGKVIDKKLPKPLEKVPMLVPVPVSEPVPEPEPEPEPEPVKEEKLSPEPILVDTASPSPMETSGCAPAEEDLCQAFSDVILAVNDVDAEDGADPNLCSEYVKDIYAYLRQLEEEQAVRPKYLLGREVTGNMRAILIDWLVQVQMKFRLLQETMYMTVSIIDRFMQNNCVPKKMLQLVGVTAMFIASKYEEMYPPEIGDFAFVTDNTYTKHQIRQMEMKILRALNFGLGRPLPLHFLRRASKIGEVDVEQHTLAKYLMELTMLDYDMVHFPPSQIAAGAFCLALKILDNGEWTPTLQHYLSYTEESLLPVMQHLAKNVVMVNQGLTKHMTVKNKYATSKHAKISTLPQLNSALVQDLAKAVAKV
T1 sequence (Q00975 whole entry): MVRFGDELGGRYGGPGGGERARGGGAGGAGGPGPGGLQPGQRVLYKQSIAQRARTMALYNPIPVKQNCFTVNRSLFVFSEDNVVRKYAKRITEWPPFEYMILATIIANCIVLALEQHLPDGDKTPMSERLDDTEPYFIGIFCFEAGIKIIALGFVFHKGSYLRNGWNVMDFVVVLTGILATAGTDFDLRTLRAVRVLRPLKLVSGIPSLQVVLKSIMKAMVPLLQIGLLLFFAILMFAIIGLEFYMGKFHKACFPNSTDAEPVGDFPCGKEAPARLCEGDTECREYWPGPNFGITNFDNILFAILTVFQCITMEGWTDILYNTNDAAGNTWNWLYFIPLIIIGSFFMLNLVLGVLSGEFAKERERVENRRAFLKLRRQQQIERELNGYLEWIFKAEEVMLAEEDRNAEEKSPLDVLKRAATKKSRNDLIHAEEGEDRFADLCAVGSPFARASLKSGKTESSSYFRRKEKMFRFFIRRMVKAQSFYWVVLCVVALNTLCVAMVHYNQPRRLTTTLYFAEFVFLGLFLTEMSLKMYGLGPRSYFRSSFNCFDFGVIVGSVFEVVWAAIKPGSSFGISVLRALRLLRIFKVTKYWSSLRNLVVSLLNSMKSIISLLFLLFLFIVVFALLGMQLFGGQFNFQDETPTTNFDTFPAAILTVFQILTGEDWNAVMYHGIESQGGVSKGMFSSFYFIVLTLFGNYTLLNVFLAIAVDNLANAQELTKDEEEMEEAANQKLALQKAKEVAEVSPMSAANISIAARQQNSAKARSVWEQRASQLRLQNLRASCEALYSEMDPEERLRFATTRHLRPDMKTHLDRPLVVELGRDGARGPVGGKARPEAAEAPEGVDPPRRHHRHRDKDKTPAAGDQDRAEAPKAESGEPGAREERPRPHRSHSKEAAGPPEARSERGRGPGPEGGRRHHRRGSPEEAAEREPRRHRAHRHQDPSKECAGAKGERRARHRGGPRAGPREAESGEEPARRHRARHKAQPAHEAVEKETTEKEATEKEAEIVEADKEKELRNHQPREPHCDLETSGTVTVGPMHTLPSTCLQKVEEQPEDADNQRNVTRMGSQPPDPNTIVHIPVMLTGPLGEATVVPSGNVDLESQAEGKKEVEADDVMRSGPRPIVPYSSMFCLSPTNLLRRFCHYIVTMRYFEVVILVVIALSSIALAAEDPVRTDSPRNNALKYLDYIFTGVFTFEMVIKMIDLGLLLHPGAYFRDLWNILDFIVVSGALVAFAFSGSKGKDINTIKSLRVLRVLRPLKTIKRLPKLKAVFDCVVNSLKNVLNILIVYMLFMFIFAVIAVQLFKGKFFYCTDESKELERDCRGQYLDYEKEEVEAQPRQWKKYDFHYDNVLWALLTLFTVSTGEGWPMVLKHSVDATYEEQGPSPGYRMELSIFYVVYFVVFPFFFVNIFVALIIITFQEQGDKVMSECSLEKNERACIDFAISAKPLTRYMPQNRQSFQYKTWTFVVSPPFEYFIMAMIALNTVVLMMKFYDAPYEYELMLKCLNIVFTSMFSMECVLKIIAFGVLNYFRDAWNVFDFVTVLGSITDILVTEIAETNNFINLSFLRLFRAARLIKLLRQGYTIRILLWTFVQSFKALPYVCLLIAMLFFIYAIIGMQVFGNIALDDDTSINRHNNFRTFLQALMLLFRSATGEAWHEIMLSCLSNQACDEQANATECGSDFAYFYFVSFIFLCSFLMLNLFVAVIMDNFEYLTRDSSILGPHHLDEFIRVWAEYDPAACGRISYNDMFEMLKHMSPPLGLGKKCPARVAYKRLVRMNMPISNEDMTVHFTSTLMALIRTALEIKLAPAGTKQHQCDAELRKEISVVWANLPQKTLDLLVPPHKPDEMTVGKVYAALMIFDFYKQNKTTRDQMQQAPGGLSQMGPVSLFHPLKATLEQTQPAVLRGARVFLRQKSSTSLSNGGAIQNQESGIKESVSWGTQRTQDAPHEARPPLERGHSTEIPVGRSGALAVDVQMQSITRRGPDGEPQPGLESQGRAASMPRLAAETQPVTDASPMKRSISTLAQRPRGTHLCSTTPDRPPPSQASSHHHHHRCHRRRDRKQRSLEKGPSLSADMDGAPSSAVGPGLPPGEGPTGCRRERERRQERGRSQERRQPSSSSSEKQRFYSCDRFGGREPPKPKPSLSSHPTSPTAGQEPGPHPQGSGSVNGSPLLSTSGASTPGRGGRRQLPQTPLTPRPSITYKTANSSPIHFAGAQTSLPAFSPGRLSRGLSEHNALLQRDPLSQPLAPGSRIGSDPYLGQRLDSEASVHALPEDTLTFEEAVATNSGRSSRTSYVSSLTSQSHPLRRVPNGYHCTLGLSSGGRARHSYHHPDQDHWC
T1 sequence (Q02410 whole entry): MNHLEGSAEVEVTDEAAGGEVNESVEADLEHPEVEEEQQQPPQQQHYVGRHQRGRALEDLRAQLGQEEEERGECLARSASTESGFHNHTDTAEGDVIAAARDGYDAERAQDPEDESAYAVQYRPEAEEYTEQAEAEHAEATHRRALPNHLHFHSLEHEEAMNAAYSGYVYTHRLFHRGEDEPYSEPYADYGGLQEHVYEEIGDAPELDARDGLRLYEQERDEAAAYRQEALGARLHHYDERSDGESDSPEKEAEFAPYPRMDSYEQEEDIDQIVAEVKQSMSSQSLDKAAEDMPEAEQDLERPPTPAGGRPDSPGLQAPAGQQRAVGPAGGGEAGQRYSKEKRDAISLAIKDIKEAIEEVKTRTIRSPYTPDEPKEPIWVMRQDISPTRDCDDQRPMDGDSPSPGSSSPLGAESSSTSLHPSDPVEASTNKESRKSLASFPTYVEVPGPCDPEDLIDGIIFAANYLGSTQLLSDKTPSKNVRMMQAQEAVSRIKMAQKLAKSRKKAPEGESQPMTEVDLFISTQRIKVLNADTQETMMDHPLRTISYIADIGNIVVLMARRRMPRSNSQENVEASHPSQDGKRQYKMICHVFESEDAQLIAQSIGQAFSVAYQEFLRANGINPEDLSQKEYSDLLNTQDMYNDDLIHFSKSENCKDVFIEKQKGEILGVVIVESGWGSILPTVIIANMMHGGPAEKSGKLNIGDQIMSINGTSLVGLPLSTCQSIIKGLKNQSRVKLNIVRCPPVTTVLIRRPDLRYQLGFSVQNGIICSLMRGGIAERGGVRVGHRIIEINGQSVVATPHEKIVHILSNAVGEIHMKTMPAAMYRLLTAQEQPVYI
Wee1-like protein kinase, sequence (P30291 whole entry): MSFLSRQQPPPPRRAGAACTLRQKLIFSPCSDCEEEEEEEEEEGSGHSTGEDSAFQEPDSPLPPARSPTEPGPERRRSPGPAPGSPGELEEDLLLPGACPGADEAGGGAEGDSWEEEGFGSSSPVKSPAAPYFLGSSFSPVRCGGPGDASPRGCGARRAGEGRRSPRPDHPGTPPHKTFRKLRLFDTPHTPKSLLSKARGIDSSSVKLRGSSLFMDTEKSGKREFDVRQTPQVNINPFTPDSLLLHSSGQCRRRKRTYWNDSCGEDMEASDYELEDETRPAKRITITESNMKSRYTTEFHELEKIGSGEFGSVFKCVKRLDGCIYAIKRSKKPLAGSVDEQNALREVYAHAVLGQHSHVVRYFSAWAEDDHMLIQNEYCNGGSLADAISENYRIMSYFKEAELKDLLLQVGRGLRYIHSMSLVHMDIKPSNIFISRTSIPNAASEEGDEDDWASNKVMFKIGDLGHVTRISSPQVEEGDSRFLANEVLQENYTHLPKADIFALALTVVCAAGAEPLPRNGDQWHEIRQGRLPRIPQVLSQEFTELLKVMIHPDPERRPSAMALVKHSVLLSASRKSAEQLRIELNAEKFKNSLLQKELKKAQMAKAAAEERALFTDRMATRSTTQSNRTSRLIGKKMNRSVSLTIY
Acyl-homoserine lactone acylase PvdQ, sequence (Q9I194 24-193 limits assumed): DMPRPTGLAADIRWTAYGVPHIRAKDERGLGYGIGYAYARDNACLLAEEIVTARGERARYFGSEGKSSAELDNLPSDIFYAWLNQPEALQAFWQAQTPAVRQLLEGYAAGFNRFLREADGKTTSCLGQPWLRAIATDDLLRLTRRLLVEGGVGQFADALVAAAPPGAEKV
Acyl-homoserine lactone acylase PvdQ, sequence (Q9I194 217-762 limits assumed): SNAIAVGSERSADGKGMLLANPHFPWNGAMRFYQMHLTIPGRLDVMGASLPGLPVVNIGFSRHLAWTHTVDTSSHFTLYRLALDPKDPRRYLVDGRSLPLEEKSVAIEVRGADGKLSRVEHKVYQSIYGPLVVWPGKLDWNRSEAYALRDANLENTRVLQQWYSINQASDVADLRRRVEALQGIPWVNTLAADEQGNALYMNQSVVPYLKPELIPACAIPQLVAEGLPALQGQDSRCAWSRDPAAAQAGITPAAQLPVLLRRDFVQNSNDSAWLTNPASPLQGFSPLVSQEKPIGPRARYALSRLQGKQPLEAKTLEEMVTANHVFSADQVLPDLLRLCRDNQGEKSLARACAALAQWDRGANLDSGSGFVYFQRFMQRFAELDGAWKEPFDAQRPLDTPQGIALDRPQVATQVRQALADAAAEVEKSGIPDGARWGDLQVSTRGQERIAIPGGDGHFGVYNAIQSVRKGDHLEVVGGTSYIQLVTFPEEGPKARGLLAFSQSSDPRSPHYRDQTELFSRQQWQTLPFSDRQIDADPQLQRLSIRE

Structure (SMILES): Cc1ccc(C2CN(C)C3(C(=O)Nc4ccccc43)C23COc2ccccc2C3=O)cc1 (stereo not given)
- CC50 [1]: > 40 µM (active)
- Absolute IC50 (XBP1) (X-box-binding protein 1): 10 µM

Structure (SMILES): CCOC(=O)N1CCN(c2ccc(Cl)c(Cl)c2)CC1
- AC50 [2]: 25.5 µM (active)
- EC50 (cells [3]): > 350 µM (not active)
- EC50 (cells [4]): > 350 µM (not active)

Structure (SMILES): Nc1ccc(OCc2ccccc2)cc1[N+](=O)[O-]
- AC50 [2]: 12.5 µM (active)
- IC50 (Nonstructural protein 1): 58.3 µM (active)

Structure (SMILES): Cc1cccc(NC(=O)COc2cc(=O)n(C)c3ccccc23)n1
- EC50 [5]: > 49.7 µM (inactive)
- EC50 (Wee1-like protein kinase): > 49.7 µM (inactive)

Structure (SMILES): C=CC[C@@H](CC(=O)N(CCO)Cc1ccccc1)C(=O)NC[C@H](OC(=O)[C@@H](CC=C)CC(=O)OC(C)(C)C)c1ccccc1
- AC50 (HeLa): 57.2 µM (active)

Structure (SMILES): CCc1ccccc1NC(=O)CCCOc1cc(=O)n(C)c2ccccc12
- EC50 [5]: > 49.7 µM (inactive)
- EC50 (Wee1-like protein kinase): > 49.7 µM (inactive)

Structure (SMILES): COc1ccc(CNC(=O)CCOC(=O)c2cc(-c3ccco3)nc3ccccc23)cc1
- IC50 (SUMO E1/E2): 29.6 µM (active)
- IC50 [6]: 14.4 µM (active)
- IC50 [7]: 20.8 µM (active)

Structure (SMILES): CN(C)c1nc(N/N=C/c2ccccc2O)nc(Nc2ccc(F)cc2)n1
- EC50 [8]: 3.62 µM (active)
- EC50 (Streptococcus): 5.81 µM (active)
- IC50 [9]: > 66.6 µM (inactive)
- IC50 (Beta-galactosidase): > 66.6 µM (inactive)
- AC50 (INS1): 3.59 µM (active)

Source: ChEMBL document CHEMBL1201862, “PubChem BioAssay data set” (2004)
